Patent EP1074545A1, “ISOQUINOLINESULFONAMIDE DERIVATIVES AND DRUGS CONTAINING THE SAME AS THE ACTIVE INGREDIENT” (Hidaka, Hiroyoshi, priority 1998, dated 1999)
Where a name gives a salt, the structure may show the parent alone.

Test system: HIV-infected cells
Test: p24 protein production inhibiting effect (in vitro), quantitation of p24 protein by ELISA
Format: cell-based
Conditions: for content of p24 protein, Day 1: control 569542; for content of p24 protein, Day 5: control 902226; for content of p24 protein, Day 0: control 0
Method: p24 Protein Production Inhibiting Effect (in vitro)
Quantitation of p24 protein was conducted by ELISA.
HIV-infected cells were lysed in a lysis buffer, and were poured in predetermined constant aliquots into the individual wells of a 96-well microplate. Subsequent to adsorption of an antigen, a solution of a biotinylated anti-p24 monoclonal antibody was added. A streptavidin-labeled peroxidase was added, followed by the addition of a substrate for staining. One, three and five days later or 2 and 4 days later, a terminating solution was added to terminate the reaction. Concerning each of the wells, the absorbance at 450 nm was measured to determine the content of p24 protein in the well.

[1] = Table 5, compound at 1.60 µg/mℓ, control 349386
[2] = Table 5, compound at 1.60 µg/mℓ, control 435119

## O=S(=O)(c1cccc2c(O)nccc12)N1CCCNCC1 [Example 6, 1-(1-Hydroxy-5-isoquinolinesulfonyl)hexahydro-1H-1,4-diazepine·monohydrochloride]
Table 1, compound at 20 µg/m
  content of p24 protein, Day 1: 551489 pg/mL
  content of p24 protein, Day 5: 698489 pg/mL
Table 1, compound at 20 µg/m, control 881594
  content of p24 protein, Day 2: 645621 pg/mL

## CCCCCCOc1ncc(C)c2c(S(=O)(=O)N3CCCNCC3)cccc12 [Example 14, 1-(1-n-Hexyloxy-4-methyl-5-isoquinolinesulfonyl)hexahydro-1H-1,4-diazepine]
Table 2, compound at 8 µg/mℓ
  content of p24 protein, Day 0: 0 pg/m
Table 2, compound at 8 µg/mℓ, control 46732
  content of p24 protein, Day 2: 1022 pg/m
Table 2, compound at 8 µg/mℓ, control 104484
  content of p24 protein, Day 4: 0 pg/m

## CCCCCCCCOc1ncc(C)c2c(S(=O)(=O)N3CCCNCC3)cccc12 [Example 20, 1-(4-Methyl-1-n-octyloxy-5-isoquinolinesulfonyl)hexahydro-1H-1,4-diazepine]
Table 4, compound at 0.32 µg/mℓ, control 38991
  content of p24 protein, Day 4: 31250 pg/mL
Table 4, compound at 0.32 µg/mℓ, control 58304.5
  content of p24 protein, Day 2: 31250 pg/mL

## CCCCCCCCCCCCCCCCCCOc1ncc(C)c2c(S(=O)(=O)N3CCCNCC3)cccc12 [Example 21, 1-(4-Methyl-1-n-octadecyloxy-5-isoquinolinesulfonyl)hexahydro-1H-1,4-diazepine]
Table 4, compound at 0.16 µg/mℓ, control 38991
  content of p24 protein, Day 4: 31250 pg/mL
Table 4, compound at 0.16 µg/mℓ, control 58304.5
  content of p24 protein, Day 2: 31250 pg/mL

## Cc1cnc(OC(C)C)c2cccc(S(=O)(=O)N3CCCNCC3)c12 [Example 22, 1-(1-Isopropyloxy-4-methyl-5-isoquinolinesulfonyl)hexahydro-1H-1,4-diazepine]
Table 4, compound at 1.60 µg/mℓ, control 38991
  content of p24 protein, Day 4: 20897 pg/mL
Table 4, compound at 1.60 µg/mℓ, control 58304.5
  content of p24 protein, Day 2: 17405 pg/mL

## CCCCC(CC)COc1ncc(C)c2c(S(=O)(=O)N3CCCNCC3)cccc12 (stereo not shown) [Example 25, 1-(1-(2-Ethyl)hexyloxy-4-methyl-5-isoquinolinesulfonyl)hexahydro-1H-1,4-diazepine]
Table 4, compound at 4.00 µg/mℓ, control 38991
  content of p24 protein, Day 4: 16416 pg/mL
Table 4, compound at 4.00 µg/mℓ, control 58304.5
  content of p24 protein, Day 2: 25557 pg/mL

## CCCCCCOc1nccc2c(S(=O)(=O)N3CCCNCC3)cccc12 [Example 28, 1-(1-Hexyloxy-5-isoquinolinesulfonyl)hexahydro-1H-1,4-diazepine]
[1]
  content of p24 protein, Day 4: 69877 pg/mL
[2]
  content of p24 protein, Day 2: 156250 pg/mL

## Cc1cncc2cccc(S(=O)(=O)N3CCNCC3)c12 [Example 29, 1-(4-Methyl-5-isoquinolinesulfonyl)piperazine]
Table 2, compound at 0.32 µg/mℓ
  content of p24 protein, Day 0: 0 pg/m
Table 2, compound at 0.32 µg/mℓ, control 46732
  content of p24 protein, Day 2: 69877 pg/m
Table 2, compound at 0.32 µg/mℓ, control 104484
  content of p24 protein, Day 4: 69877 pg/m

## Cc1cnc(O)c2cccc(S(=O)(=O)N3CCCNC(C)C3)c12 (stereo not shown) [Example 36, 1-(1-Hydroxy-4-methyl-5-isoquinolinesulfonyl)-3-methylhexahydro-1H-1,4-diazepine·monohydrochloride]
Table 5, compound at 3.20 µg/mℓ, control 349386
  content of p24 protein, Day 4: 82082 pg/mL
Table 5, compound at 3.20 µg/mℓ, control 435119
  content of p24 protein, Day 2: 104484 pg/mL

## CNc1ncc(C)c2c(S(=O)(=O)N3CCCNCC3)cccc12 [Example 41, 1-(4-Methyl-1-N-methylamino-5-isoquinolinesulfonyl)hexahydro-1H-1,4-diazepine]
Table 2, compound at 0.8 µg/mℓ
  content of p24 protein, Day 0: 0 pg/m
Table 2, compound at 0.8 µg/mℓ, control 46732
  content of p24 protein, Day 2: 82082 pg/m
Table 2, compound at 0.8 µg/mℓ, control 104484
  content of p24 protein, Day 4: 66977 pg/m

## C=CCOc1ncc(C)c2c(S(=O)(=O)N3CCCNCC3)cccc12 [Example 46, 1-(1-Allyloxy-4-methyl-5-isoquinolinesulfonyl)hexahydro-1H-1,4-diazepine]
Table 5, compound at 8.00 µg/mℓ, control 349386
  content of p24 protein, Day 4: 156250 pg/mL
Table 5, compound at 8.00 µg/mℓ, control 435119
  content of p24 protein, Day 2: 233662 pg/mL

## Cc1cnc(OCc2c(F)c(F)c(F)c(F)c2F)c2cccc(S(=O)(=O)N3CCCNCC3)c12 [Example 48, 1-(4-Methyl-1-pentafluorophenylmethyloxy-5-isoquinolinesulfonyl)hexahydro-1H-1,4-diazepine]
[1]
  content of p24 protein, Day 4: 297434 pg/mL
[2]
  content of p24 protein, Day 2: 82082 pg/mL

## Cc1cnc(O)c2cccc(S(=O)(=O)N3CCCNCC3C)c12 (stereo not shown) [Example 51, 1-(1-Hydroxy-4-methyl-5-isoquinolinesulfonyl)2-methylhexahydro-1H-1,4-diazepine·monohydrochloride]
Table 1, compound at 10 µg/m
  content of p24 protein, Day 1: 641752 pg/mL
  content of p24 protein, Day 5: 566963 pg/mL
Table 1, compound at 10 µg/m, control 881594
  content of p24 protein, Day 2: 624989 pg/mL

## CCCCCCOc1ncc(C)c2c(S(=O)(=O)N3CCCNCC3C)cccc12 (stereo not shown) [Example 53, 1-(1-n-Hexyloxy-4-methyl-5-isoquinolinesulfonyl)2-methylhexahydro-1H-1,4-diazepine]
Table 5, compound at 40.0 µg/mℓ, control 349386
  content of p24 protein, Day 4: 233662 pg/mL
Table 5, compound at 40.0 µg/mℓ, control 435119
  content of p24 protein, Day 2: 94822 pg/mL

## O=S(=O)(c1cccc2cncc(F)c12)N1CCCNCC1 [Example 55, 1-(4-Fluoro-5-isoquinolinesulfonyl)hexahydro-1H-1,4-diazepine]
Table 3, compound at 4 µg/mℓ, control 82079
  content of p24 protein, Day 4: 59487 pg/mL
Table 3, compound at 4 µg/mℓ, control 104484
  content of p24 protein, Day 2: 59487 pg/mL

## Cc1cncc2c(S(=O)(=O)N3CCCNCC3)cccc12 [Example 66, 1-(4-Methyl-8-isoquinolinesulfonyl)hexahydro-1H-1,4-diazepine]
Table 4, compound at 200 µg/mℓ, control 38991
  content of p24 protein, Day 4: 20897 pg/mL
Table 4, compound at 200 µg/mℓ, control 58304.5
  content of p24 protein, Day 2: 25557 pg/mL
